Here are results for four molecules from US20090317497A1, “Compositions and methods for promoting brain and cardiovascular health, preventing and treating brain and cardiovascular disorders” (priority 2007, published 2009).

Molecules are shown by their SMILES.

For assay [1], the system named is Wistar rats with stroke induced middle cerebral artery occlusion (MCAO). The assay can be described thus: Chronic MCAO stroke study, Wistar (Example 7). Format: in vivo. Particulars: Braintone 500 mg/kg, Ginkgo 20, Aspirin 10, Losartan 1 mg/kg/day, means +/- SD, scale 0 to 5. The procedure: (§1) 96 Wistar rats and 96 SHR, weighing 250-300 g, were randomly divided into eight treatment groups respectively (see Table 14), Remembrance (Formulation A) and other comparative drugs were dissolved in distilled water and administrated orally once daily for two months (Table 14: dosage of administration).
Oral administration of Remembrance/other treatments (2 months)→MACO→Continue the corresponding treatment after MACO (1 month)→Measurements
The differentiation of […] capillaries and evaluation of morphological changes after cerebral ischemia were performed using Hematoxylin and Eosin Staining. Random slides of the rat brains were used for the staining.

The subject of assay [2] is spontaneous hypertension rats (SHR) with stroke induced middle cerebral artery occlusion (MCAO). The assay can be described thus: Chronic MCAO stroke study, SHR (Example 7). Format: in vivo. The conditions noted are these: Braintone (500), Ginkgo 20, Aspirin 10, Losartan 1 mg/kg/day, means +/- SD, scale 0 to 5.
Assay [3] has as its system apoptosis-induced nuclear DNA fragmentation in cerebral cortex. The assay can be described thus: Apoptosis assay, TUNEL staining, Wistar (Example 7). It is filed as in vivo, Wistar rats. The conditions noted are these: after 1 month of MCAO, doses of Table 14.
Excerpt: TUNEL staining was used for detection of apoptosis-induced nuclear DNA fragmentation via fluorescence microscopy.
Apoptotic cells were identified by using TUNEL staining.
For assay [4] the test system is unchanged. The assay can be described thus: Apoptosis assay, TUNEL staining, SHR (Example 7). Particulars: doses of Table 14. It is filed as in vivo.
Excerpt: TUNEL staining was used for detection of apoptosis-induced nuclear DNA fragmentation via fluorescence microscopy. Apoptotic cells were identified by using TUNEL staining.
The test system of assay [5] is oxidized DNA base products. The assay can be described thus: DNA damage, oxidized DNA base products by GC/MS, Wistar (Example 7). Particulars: stroke-induced, Aspirin 10, Losartan 1 mg/kg/day. Format: in vivo, Wistar rats.
The test system of assay [6] is Spontaneous Hypertensive Rats (SHR) with MCAO. The assay can be described thus: 2-week MCAO stroke study, SHR (Example 4). It is filed as in vivo. The procedure: (§2) Wistar and SHR rats were randomly divided into four treatment groups and one sham group (see Table 7 and 8).
(§3) The morphological changes were evaluated after cerebral ischemia. The brains were dipped in M-1 Embedding Matrix for frozen sectioning, frozen in liquid nitrogen and stored at −80 deg C. The cerebral sections were then cut from the middle part of the frozen brain at 20 um. 4 to 6 sections were obtained from each brain for HE staining. HE staining of sections was performed to differentiate capillaries, after which they were covered with crystal mount. Cerebral sections were examined under the microscope and photographed.

The next assay has as its system Wistar Rats with MCAO. The assay can be described thus: 2-week MCAO stroke study, Wistar (Example 4). It is filed as in vivo. As to the method: as §2, §3
Assay [7] relates to oxidized DNA base products. The assay can be described thus: Evaluation of DNA damage in blood DNA by GC/MS (Example 5). Format: in vivo, Wistar rats and SHR. The conditions noted are these: Stroke + treatment, doses of Table 9; mean ± S.D.; unit not given in Table 11 (Table 10: nmol/mg DNA). The procedure: 60 Wistar rats and 60 SHR were divided into six treatment groups separately (excluding the vehicle group). The single blinded experiment was conducted with Formulation B and other drugs being administrated once daily orally (see Table 9). After a week treatment, Wistar rats underwent a MCAO procedure to induce stroke. Treatment was continued for another week after surgery before the rats were sacrificed by decapitation. DNA extraction and DNA base damage analysis was then performed. DNA was extracted from blood samples collected from different treatment groups of Wistar rats and SHR using the phenol-chloroform method. The DNA samples were then analyzed by GC/MS.

The next assay concerns AT2 receptor. As to the kind of experiment: RT-PCR gene expression in left cortex after MCAO: AT2 (Example 6). Particulars: stroke operated groups, doses of Table 12; compared with stroke operated vehicle group (p<0.05). It is filed as in vivo, Wistar rats. The text has this: (§4) The brains were collected for further gene expression studies. The cerebral left cortexes containing infarct area were separated.

For another assay, the system named is Bax. The assay can be described thus: RT-PCR gene expression in left cortex after MCAO: Bax (Example 6). Format: in vivo, Wistar rats. The conditions noted are these: stroke-operated group, doses of Table 12; compared with stroke operated vehicle group (p<0.05).
Excerpt: as §4

A further assay has as its system Fas. As to the kind of experiment: RT-PCR gene expression in left cortex after MCAO: Fas (Example 6). Format: in vivo, Wistar rats. The conditions noted are these: stroke-operated group, doses of Table 12; compared with stroke operated vehicle group.
Excerpt: as §4

Assay [8] has as its system BcL-xL. As to the kind of experiment: RT-PCR gene expression in left cortex after MCAO: BcL-xL (Example 6). Format: in vivo, Wistar rats. The conditions noted are these: stroke operated, doses of Table 12.
Excerpt: as §4

Assay [9] has as its system BcL-xS. The assay can be described thus: RT-PCR gene expression in left cortex after MCAO: BcL-xS (Example 6). Format: in vivo, Wistar rats. The conditions noted are these: stroke operated, doses of Table 12; compared with stroke operated vehicle group (p<0.05).
Excerpt: as §4

In assay [10] the test system is BcL-xL. The assay can be described thus: Gene expression Bcl-xL, Wistar (Example 7). Format: in vivo, Wistar rats. The conditions noted are these: Losartan 1 mg/kg/day, compared with vehicle group (p<0.01). As to the method:
as §1
(§5) Glyceraldehydes-3-[…] dehydrogenase (GAPDH) was used as the internal standard gene. Primers sequences of GAPDH, VEGF, eNOS, ACE, AT1, AT2, Fas, Bax, Bcl-xL and Bcl-xS were used in this study.

Assay [11] relates to Bcl-xS. The assay can be described thus: Gene expression Bcl-xS, SHR (Example 7). Format: in vivo. Particulars: doses of Table 14, vs Vehicle group. As to the method: as §1, §5
Assay [12] is described as follows: Inhibition of Pyrogallol Red Bleaching by Hypochlorous Acid. Format: biochemical. The conditions noted are these: 10 mg/ml; 125 uM HOCL; pH 7.4, 37 deg. C.; 542 nm. As to the method: Pyrogallol Red was dissolved in 100 mM buffer at 37 deg. C., pH 7.4, after which 125 uM HOCL was added and incubated with 10 mg/ml ascorbic acid and other select herbal extracts including two batches of Formulation B. The absorbance values of the mixtures in the presence and absence of the antioxidant were recorded by UV visible spectrophotometer at 542 nm.

Another assay is described as follows: Inhibition of ABTS Assay. It is filed as biochemical. The conditions noted are these: 10 ul of 10 mg/ml in 990 ul ABTS reagent; 2 minutes; 734 nm.
Where [13] appears, read: MCAO, Formulation B 500 mg/kg/day, Losartan 1 mg/kg/day.
The mark [14] stands for this setting: MCAO, Formulation B 500 mg/kg/day, Losartan 1 mg/kg/day, day 13.

Protocol for Inhibition of ABTS Assay: 10 ul of 10 mg/ml of select herbal extracts and two batches of Formulation B were mixed with 990 ul of ABTS reagent and incubated for 2 minutes before the absorbance was measured by UV visible spectrophotometer at 734 nm.

Consider `CC(=O)Oc1ccccc1C(=O)O` [Aspirin], for which the “Neurological score, 1 day after stroke” value stood at 1 ± 1.73 in assay [1] and 1.72 ± 1.73 in [2]. In addition, the “Neurological score, 1 day before decapitation” value was 2 ± 2.74 in [1] and 1.54 ± 2.15 in assay [2]. For the same molecule, the “Neurological score, 15 days after stroke” value in [1] was 2 ± 2.45; in [2], 0.63 ± 1.84. Moreover, the “apoptosis (TUNEL staining) in cerebral cortex” value in assay [3] and in assay [4] was “reduction in apoptosis” throughout. In addition, the “amount of DNA damage compared to Remembrance 500 mg group” value in assay [5] was “higher amount of DNA damage”.
Turning to `CCCCc1nc(Cl)c(CO)n1Cc1ccc(-c2ccccc2-c2nn[nH]n2)cc1` [Losartan], in assay [6] (setting [13]), the infarct volume is on record as 5.22%. The mortality rate in [6] (setting [14]) is 28.6%. In assay [6] (after MCAO), the “number of capillaries, HE staining” value is listed as 15 capillaries. This molecule also had an infarct volume with Wistar Rats with MCAO (setting [13]) of 2.41%. The molecule further had a mortality rate with Wistar Rats with MCAO (setting [14]) of 0%. Besides, in the assay with Wistar Rats with MCAO (after MCAO), the “number of capillaries, HE staining” value stood at 22 capillaries. In assay [7], the “2OH Adenine” value turned out to be 0.02 ± 0.03; the “5(OH, Me) Uracil” value turned out to be 0.04 ± 0.03; the “5CI Uracil” value was 0.02 ± 0.01; the “5Formyl Uracil” value is listed as 0.01 ± 0.01. In assay [7], the “5OH Cytosine” value is 0.01 ± 0.01; the “5OH Uracil” value is on record as 0.01 ± 0.01; the “5OH, Me Hydantoin” value is 0.10 ± 0.02; the “8OH Adenine” value stood at 0.05 ± 0.04. Further, in assay [7], the “8OH Guanine” value was determined as 0.13 ± 0.04, the “FAPy Adenine” value turned out to be 0.09 ± 0.03, the “FAPy Guanine” value amounted to 0.03 ± 0.03 and the Hypoxanthine is reported as 22.21 ± 8.01. In addition, in assay [7], the “Thymine Glycol (cis)” value is recorded as 2.20 ± 0.15 and the Xanthine is reported as 1.51 ± 0.32. The AT2 expression entry with AT2 receptor is “significantly reduced”. In addition, in the assay on Bax, the Bax gene expression result is given as “significant effect in down regulating”. Moreover, in the assay with Fas, the Fas expression entry is listed as “no significant effect”. Further, the “BcL-xL up or down regulation” value in the assay with BcL-xL [8] is listed as “did not have any significant effects”. Further, in the assay with BcL-xS [9], the BcL-xS expression result is “significantly reduced expression”. The Bcl-xL expression result in the assay on BcL-xL [10] is “significant fold decrease”. For the same molecule, the Bcl-xS expression entry in the assay with Bcl-xS [11] is recorded as “up-regulating effects”. Also, in assay [5], the “amount of DNA damage compared to Remembrance 500 mg group” value is reported as “higher amount of DNA damage”.
Take `CCOC(=O)[C@H](CCc1ccccc1)N[C@@H](C)C(=O)N1[C@H](C(=O)O)C[C@@H]2CCC[C@@H]21` [Ramipril]: in [7], the “2OH Adenine” value stood at 0.03 ± 0.02; the “5(OH, Me) Uracil” value was 0.03 ± 0.00; the “5CI Uracil” value worked out at 0.01 ± 0.00; the “5Formyl Uracil” value was found to be 0.50 ± 0.03. In addition, in assay [7], the “5OH Cytosine” value is listed as 0.05 ± 0.01; the “5OH Uracil” value was 0.06 ± 0.00; the “5OH, Me Hydantoin” value is 0.04 ± 0.02; the “8OH Adenine” value was 0.03 ± 0.01. Moreover, in [7], the “8OH Guanine” value was 0.13 ± 0.07, the “FAPy Adenine” value is given as 0.08 ± 0.03, the “FAPy Guanine” value was found to be 0.03 ± 0.01 and the Hypoxanthine worked out at 18.12 ± 11.18. In addition, in [7], the “Thymine Glycol (cis)” value turned out to be 0.68 ± 0.31 and the Xanthine was 2.61 ± 1.64. Besides, the AT2 expression entry in the assay on AT2 receptor is listed as “significantly reduced”. For the same molecule, the Bax gene expression result in the assay with Bax was “significant effect in down regulating”. In addition, the Fas expression result in the assay with Fas was “no significant effect”. The “BcL-xL up or down regulation” value with BcL-xL [8] is “did not have any significant effects”. The BcL-xS expression entry in the assay with BcL-xS [9] is given as “significantly reduced expression”.
In the case of `O=C1O[C@H]([C@@H](O)CO)C(O)=C1O` [ascorbic acid], the “pyrogallol red bleaching inhibition” value in assay [12] is around 100%. Besides, the “scavenging effect of ABTS” value in “Inhibition of ABTS Assay” amounted to 100%.
